Measurements from patent US6737383B1, “Herbicidal oxadiazolidines” (priority 1999, dated 2004).

Experiments:
[1] = tested on: cocklebur; test: Test B pre/postemergence cocklebur; assay type: in vivo, Xanthium strumarium
Outline: (§1)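 Test chemicals in a non-phytotoxic solvent mixture with surfactant were sprayed preemergence onto planted seeds and postemergence onto plants 2 to 18 cm tall (1- to 4-leaf stage). After twelve to sixteen days in a greenhouse, injury was visually rated against untreated controls from 0 (no effect) to 10 (complete control).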

[2] = tested on: giant foxtail; test: Test B pre/postemergence giant foxtail; assay type: in vivo, Setaria faberii
Outline: as §1

[3] = tested on: purple nutsedge; test: Test B pre/postemergence purple nutsedge; assay type: in vivo, Cyperus rotundus
Outline: as §1

[4] = tested on: sugar beet; test: Test B pre/postemergence sugar beet; assay type: in vivo, Beta vulgaris
Outline: as §1

[5] = tested on: soybean; test: Test B pre/postemergence soybean; assay type: in vivo, Glycine max
Outline: as §1

[6] = tested on: smallflower flatsedge; test: Test B flood test smallflower flatsedge; assay type: in vivo, Cyperus difformis
Outline: (§2)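 Each value is a visual injury score relative to controls, with 10 meaning complete control and 0 no effect. Evaluation took place twelve to sixteen days after the 2-leaf-stage plants were treated and kept in the greenhouse.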

[7] = tested on: wheat; test: Test B pre/postemergence wheat; assay type: in vivo, Triticum aestivum
Outline: as §1

[8] = tested on: blackgrass; test: Test B pre/postemergence blackgrass; assay type: in vivo, Alopecurus myosuroides
Outline: as §1

[9] = tested on: bamyardgrass; test: Test B flood test barnyardgrass; assay type: in vivo, Echinochloa crus-galli
Outline: as §2

[10] = tested on: corn; test: Test B pre/postemergence corn; assay type: in vivo, Zea mays
Outline: as §1

[11] = tested on: duck salad; test: Test B flood test duck salad; assay type: in vivo, Heteranthera limosa
Outline: as §2

[12] = tested on: surinam grass; test: Test B pre/postemergence surinam grass; assay type: in vivo, Brachiaria decumbens
Outline: as §1

[13] = tested on: rape; test: Test B pre/postemergence rape; assay type: in vivo, Brassica napus
Outline: as §1

[14] = tested on: pigweed; test: Test B pre/postemergence pigweed; assay type: in vivo, Amaranthus retroflexus
Outline: as §1

[15] = tested on: rice; test: Test B flood test rice; assay type: in vivo, Oryza sativa
Outline: as §2

[16] = tested on: crabgrass; test: Test B pre/postemergence crabgrass; assay type: in vivo, Digitaria sanguinalis
Outline: as §1

[17] = Postemergence, Rate 125 g/ha, scale of 0 to 10 where 0 is no effect and 10 is complete control
[18] = Preemergence, Rate 62 g/ha, scale of 0 to 10 where 0 is no effect and 10 is complete control
[19] = Preemergence, Rate 125 g/ha, 0 is no effect, 10 is complete control
[20] = Preemergence, Rate 250 g/ha, scale 0 to 10, 0 is no effect, 10 is complete control
[21] = Preemergence, Rate 500 g/ha, scale 0 to 10 (0 no effect, 10 complete control)
[22] = Rate 62 g/ha, Postemergence, scale of 0 to 10 where 0 is no effect and 10 is complete control
[23] = Rate 250 g/ha, Postemergence, scale 0 to 10, 0 is no effect, 10 is complete control
[24] = Rate 500 g/ha, Postemergence, scale 0 to 10
[25] = Postemergence (flood test species), Rate 125 g/ha, scale of 0 to 10 where 0 is no effect and 10 is complete control
[26] = Rate 62 g/ha, Postemergence section, flood test species, scale of 0 to 10 where 0 is no effect and 10 is complete control
[27] = Rate 250 g/ha, Postemergence (flood test), scale 0 to 10, 0 is no effect, 10 is complete control
[28] = Rate 500 g/ha, listed under Postemergence (flood test species), scale 0 to 10

CC(C)N(C(=O)n1oc(=O)n(N(C)C)c1=O)c1ccc(F)cc1 [Compound 170]
Cocklebur plant response rating [1, 17]: 0
Cocklebur plant response rating [1, 18]: 0
Cocklebur plant response rating (0 to 10 scale) [1, 19]: 0
Cocklebur plant response rating [1, 20]: 0
Cocklebur plant response rating [1, 21]: 9
Cocklebur plant response rating [1, 22]: 0
Plant response rating, Cocklebur [1, 23]: 0
Cocklebur plant response rating [1, 24]: 0
Giant foxtail plant response rating [2, 17]: 7
Giant foxtail plant response rating [2, 18]: 9
Giant foxtail plant response rating (0 to 10 scale) [2, 19]: 10
Giant foxtail plant response rating [2, 20]: 10
Giant foxtail plant response rating [2, 21]: 10
Giant foxtail plant response rating [2, 22]: 4
Plant response rating, Giant foxtail [2, 23]: 8
Giant foxtail plant response rating [2, 24]: 8
Nutsedge plant response rating [3, 17]: 2
Nutsedge plant response rating [3, 18]: 0
Nutsedge plant response rating (0 to 10 scale) [3, 19]: 9
Nutsedge plant response rating [3, 20]: 9
Nutsedge plant response rating [3, 21]: 9
Nutsedge plant response rating [3, 22]: 2
Plant response rating, Nutsedge [3, 23]: 7
Nutsedge plant response rating [3, 24]: 7
Sugarbeets plant response rating [4, 17]: 0
Sugarbeets plant response rating [4, 18]: 4
Sugarbeets plant response rating (0 to 10 scale) [4, 19]: 8
Sugarbeets plant response rating [4, 20]: 8
Sugarbeets plant response rating [4, 21]: 10
Sugarbeets plant response rating [4, 22]: 0
Plant response rating, Sugarbeets [4, 23]: 2
Sugarbeets plant response rating [4, 24]: 4
Soybean plant response rating [5, 17]: 3
Soybean plant response rating [5, 18]: 0
Soybean plant response rating (0 to 10 scale) [5, 19]: 1
Soybean plant response rating [5, 20]: 4
Soybean plant response rating [5, 21]: 9
Soybean plant response rating [5, 22]: 2
Plant response rating, Soybean [5, 23]: 4
Soybean plant response rating [5, 24]: 7
S. Flatsedge plant response rating [6, 25]: 0
S. Flatsedge plant response rating [6, 26]: 0
Plant response rating, S. Flatsedge [6, 27]: 0
S. Flatsedge plant response rating [6, 28]: 0
Wheat plant response rating [7, 18]: 5
Wheat plant response rating (0 to 10 scale) [7, 19]: 6
Wheat plant response rating [7, 20]: 8
Wheat plant response rating [7, 21]: 8
Plant response rating, Wheat [7, 23]: 6
Wheat plant response rating [7, 24]: 7
Blackgrass plant response rating [8, 17]: 9
Blackgrass plant response rating [8, 18]: 10
Blackgrass plant response rating (0 to 10 scale) [8, 19]: 10
Blackgrass plant response rating [8, 20]: 10
Blackgrass plant response rating [8, 21]: 10
Blackgrass plant response rating [8, 22]: 9
Plant response rating, Blackgrass [8, 23]: 9
Blackgrass plant response rating [8, 24]: 9
Barnyardgrass plant response rating [9, 25]: 0
Barnyardgrass plant response rating [9, 26]: 0
Plant response rating, Barnyardgrass [9, 27]: 0
Barnyardgrass plant response rating [9, 28]: 0
Corn plant response rating [10, 17]: 0
Corn plant response rating [10, 18]: 0
Corn plant response rating (0 to 10 scale) [10, 19]: 2
Corn plant response rating [10, 20]: 6
Corn plant response rating [10, 21]: 9
Corn plant response rating [10, 22]: 0
Plant response rating, Corn [10, 23]: 0
Corn plant response rating [10, 24]: 0
Ducksalad plant response rating [11, 25]: 0
Ducksalad plant response rating [11, 26]: 0
Plant response rating, Ducksalad [11, 27]: 0
Ducksalad plant response rating [11, 28]: 0
B. signalgrass plant response rating [12, 17]: 6
B. signalgrass plant response rating [12, 18]: 2
B. signalgrass plant response rating (0 to 10 scale) [12, 19]: 9
B. signalgrass plant response rating [12, 20]: 10
B. signalgrass plant response rating [12, 21]: 10
B. signalgrass plant response rating [12, 22]: 3
Plant response rating, B. signalgrass [12, 23]: 9
B. signalgrass plant response rating ([12]; Rate 500 g/ha, Postemergence, scale 0 to 10, 0 no effect, 10 complete control): 10
Rape plant response rating [13, 17]: 0
Rape plant response rating [13, 18]: 2
Rape plant response rating (0 to 10 scale) [13, 19]: 8
Rape plant response rating [13, 20]: 10
Rape plant response rating [13, 21]: 10
Rape plant response rating [13, 22]: 0
Plant response rating, Rape [13, 23]: 0
Rape plant response rating [13, 24]: 3
Redroot pigweed plant response rating [14, 17]: 0
Redroot pigweed plant response rating [14, 18]: 10
Redroot pigweed plant response rating (0 to 10 scale) [14, 19]: 10
Redroot pigweed plant response rating [14, 20]: 10
Redroot pigweed plant response rating [14, 21]: 10
Redroot pigweed plant response rating [14, 22]: 0
Plant response rating, Redroot pigweed [14, 23]: 6
Redroot pigweed plant response rating [14, 24]: 6
Rice plant response rating [15, 25]: 0
Rice plant response rating [15, 26]: 0
Plant response rating, Rice [15, 27]: 0
Rice plant response rating [15, 28]: 0
Crabgrass plant response rating [16, 17]: 9
Crabgrass plant response rating [16, 18]: 8
Crabgrass plant response rating (0 to 10 scale) [16, 19]: 10
Crabgrass plant response rating [16, 20]: 10
Crabgrass plant response rating [16, 21]: 10
Crabgrass plant response rating [16, 22]: 8
Plant response rating, Crabgrass [16, 23]: 9
Crabgrass plant response rating [16, 24]: 9
